Patent US20020177554A1, “Novel peptides for use in treatment of T-cell mediated cartilage destruction in autoimmune diseases” (Akzo Nobel N.V., priority 1995, published 2002)
Ends that are not written are not given here.

B1: HAG3 (peptide)
peptide: H-AGWLADGSLRYPI-OH
notes: Synthetic peptide with free amino and carboxy termini; The residue range on HAG is not tied to this label
B2: HAG2 (peptide)
peptide: H-AGWLADRSVRYPI-OH
notes: as for B1
B3: HCLP1 (peptide)
peptide: AGWLSDGSVQYPI
notes: also called HCIP1

Assays:
PBMC from RA patients = assay: Proliferative responses of PBMC from RA patients ([3H]thymidine incorporation); format: cell-based, human; settings: peptide 50 μg/ml, mean of three or four measurements
[1] = molecular target: T1, HLA-DR4 (DRB1*0401) molecules, affinity purified (human); assay: semi-quantitative competition with biotinylated IHA(307-319)F for purified HLA-DR; relative IC50 grade read by eye from ECL blot
T1 construct: mature; Used at 0.05-5 uM in the assay

[2] = molecular target: T1, HLA-DR4 (DRB1*0401) molecules, affinity …; assay: semi-quantitative competition with biotinylated IHA(307-319)F for purified HLA-DR; range taken from the table legend for grade ++
[3] = molecular target: T1, HLA-DR4 (DRB1*0401) molecules, affinity …; assay: semi-quantitative competition with biotinylated IHA(307-319)F for purified HLA-DR; range taken from the table legend for grade +

Row | Molecule | Proliferative response of PBMC, [3H]TdR incorporation (PBMC from RA patients; donor 191 (RA), background 320) [count per 5 min] | Proliferative response of PBMC, [3H]TdR incorporation (PBMC from RA patients; donor 209 (RA), background 405) [count per 5 min] | relative binding affinity IC50 (eIC50) [1] [µM] | IC50 [2] [µM] | further results
1 | AGWLADGSLRYPI [HAG3] | 233 | 1094 |  |  | 
2 | AGWLADRSVRYPI [HAG2] | 1061 | 1115 |  |  | 
3 | AGWLSDGSVQYPI [HCLP1] |  | 1503 |  |  | Proliferative response of PBMC, [3H]TdR incorporation (PBMC from RA patients; donor 227 (RA), background 833): 1964 count per 5 min
4 | B1 |  |  | 1 to 10 | 1 to 10 | 
5 | B2 |  |  | 1 to 10 | 1 to 10 | 
6 | B3 |  |  | 10 to 100 |  | IC50 [3]: 10 to 100 µM
